MIC data for seven compounds are collected here from DBAASP.

SMILES strings stand for the structures. In brackets after ≈: the same amount, converted by molar mass. A value given as a limit tells only on which side of the number the result lay.

Assay in all cases: ≥ marks a high value that may be exact or a test limit, other limits are often not marked, values filed in µg/mL are converted to µM
Experiment [1] concerns Staphylococcus epidermidis ATCC 35984.
Experiment [2] has as its system Staphylococcus aureus ATCC 33591.
In experiment [3] the test system is Staphylococcus aureus ATCC 25923.
The subject of experiment [4] is Pseudomonas aeruginosa ATCC 27853.
Experiment [5] has as its system Xanthomonas vesicatoria DSM 50861.
In experiment [6] the test system is Pseudomonas syringae pv. tomato DC3000.
Experiment [7] relates to Cladosporium herbarum.
In experiment [8] the test system is Pectobacterium carotovorum subsp. carotovorum DSM 30168.
Experiment [9] concerns Fusarium solani.
Experiment [10] has as its system Clavibacter michiganensis subsp. michiganensis DSM 46294.
The test system of experiment [11] is Pseudomonas corrugata DSM 7228.
The test system of experiment [12] is Botrytis cinerea.
Experiment [13] deals with Alternaria alternata.
Experiment [14] concerns Pseudomonas syringae pv. syringae DSM 10604.
In experiment [15] the test system is Candida glabrata 090902.
The subject of experiment [16] is Nocardia asteroides 201118.
The test system of experiment [17] is Psychrobacter faecalis X29.
Experiment [18] concerns Enterococcus faecalis 981.
Experiment [19] deals with Bacillus subtilis KCTC 3068.
The subject of experiment [20] is Salmonella typhimurium KCTC 1926.
Experiment [21] has as its system Enterococcus faecalis KCCM 29212.
The subject of experiment [22] is Pseudomonas aeruginosa KCTC 1637.
Experiment [23] deals with Enterococcus faecalis ATCC 51575.
Experiment [24] has as its system Enterococcus faecium KCCM 12118.
The test system of experiment [25] is Enterococcus faecium ATCC 51559.
Experiment [26] deals with Staphylococcus aureus KCTC 1621.
For experiment [27], the system named is Staphylococcus aureus KCCM 40510.
Experiment [28] relates to Staphylococcus epidermidis KCTC 1917.
Experiment [29] deals with Escherichia coli KCTC 1682.
The subject of experiment [30] is Escherichia coli ATCC 25922.
In experiment [31] the test system is Candida albicans SC5314.
For experiment [32], the system named is Bacillus subtilis.
Experiment [33] deals with Staphylococcus aureus ATCC 2592.

With `CC[C@H](C)[C@H](NC(=O)[C@H](CCCCN)NC(=O)[C@@H](NC(=O)[C@H](Cc1ccccc1)NC(=O)[C@H](C)NC(=O)[C@H](CCCCN)NC(=O)CNC(=O)[C@H](Cc1ccccc1)NC(=O)[C@H](CCCCN)NC(=O)[C@H](CCCCN)NC(=O)[C@H](C)N)C(C)C)C(=O)N[C@@H](CC(C)C)C(N)=O` [AKKFGKAFVKIL], the MIC in [1] was no less than 94.8 µM; in [2], no less than 94.8 µM; in [3], 190 µM (≈ 256 µg/mL); in [4], 33.5 µM (≈ 45.2 µg/mL).
With `C[C@H](NC(=O)[C@H](Cc1cnc[nH]1)NC(=O)[C@H](CO)NC(=O)[C@@H](N)CC(=O)O)C(=O)N[C@@H](CCCCN)C(=O)N[C@@H](CCCN=C(N)N)C(=O)N[C@@H](Cc1cnc[nH]1)C(=O)N[C@@H](Cc1cnc[nH]1)C(=O)NCC(=O)N[C@H](C(=O)N[C@@H](CCCCN)C(=O)N[C@@H](CCCN=C(N)N)C(=O)N[C@@H](CCCCN)C(=O)N[C@@H](Cc1ccccc1)C(=O)N[C@@H](Cc1cnc[nH]1)C(=O)N[C@@H](CCC(=O)O)C(=O)N[C@@H](CCCCN)C(=O)N[C@@H](Cc1cnc[nH]1)C(=O)N[C@@H](Cc1cnc[nH]1)C(=O)N[C@@H](CO)C(=O)N[C@@H](Cc1cnc[nH]1)C(=O)N[C@@H](CCCN=C(N)N)C(=O)NCC(=O)N[C@H](C(=O)O)[C@@H](C)O)[C@@H](C)O` [DSHAKRHHGTKRKFHEKHHSHRGT], the MIC in experiment [5] stood at 22 µM (≈ 64 µg/mL); in experiment [6] it was 22 µM (≈ 64 µg/mL); in [7], 22 µM (≈ 64 µg/mL); in experiment [8], 22 µM (≈ 64 µg/mL); in experiment [9], 5.49 µM (≈ 16 µg/mL); in [10] it was 22 µM (≈ 64 µg/mL). The minimum inhibitory concentration (MIC) in [11], in experiment [12], in experiment [13] and in experiment [14] was 22 µM (≈ 64 µg/mL) throughout.
Consider `CC[C@H](C)[C@H](NC(=O)[C@H](CC(C)C)NC(=O)CNC(=O)[C@@H]1CCCN1C(=O)[C@H](CC(C)C)NC(=O)[C@@H](N)Cc1ccccc1)C(=O)N[C@@H](CCCCN)C(=O)N[C@H](C(=O)N[C@@H](C)C(=O)N[C@H](C(=O)NCC(=O)N[C@H](C(=O)NCC(=O)N[C@@H](CO)C(=O)N[C@H](C(=O)N[C@H](C(=O)N[C@@H](CC(C)C)C(=O)N[C@H]1CSSC[C@@H](C(=O)O)NC(=O)[C@H](CCCCN)NC(=O)[C@H](CCCCN)NC(=O)[C@H]([C@@H](C)O)NC(=O)[C@H]([C@@H](C)CC)NC(=O)[C@H](CCCCN)NC1=O)[C@@H](C)CC)[C@@H](C)O)C(C)C)C(C)C)C(C)C` [FLPGLIKVAVGVGSTILCKITKKC], for which the minimum inhibitory concentration (MIC) in experiment [15] is 6.3 µM (≈ 15.7 µg/mL); in experiment [16], 3.1 µM (≈ 7.71 µg/mL); in experiment [3], 6.3 µM (≈ 15.7 µg/mL); in experiment [17], no less than 50 µM; in [18], 3.1 µM (≈ 7.71 µg/mL).
`CC[C@H](C)[C@H](NC(=O)CN)C(=O)NCC(=O)N[C@@H](CCCCN)C(=O)N[C@@H](Cc1ccccc1)C(=O)N[C@@H](CC(C)C)C(=O)N[C@@H](CCCCN)C(=O)N[C@@H](CCCCN)C(=O)N[C@@H](C)C(=O)N[C@@H](CCCCN)C(=O)N[C@@H](CCCCN)C(=O)N[C@@H](Cc1ccccc1)C(=O)NCC(=O)N[C@@H](CCCCN)C(=O)N[C@@H](C)C(=O)N[C@@H](Cc1ccccc1)C(=O)N[C@H](C(N)=O)C(C)C` [GIGKFLKKAKKFGKAFV]: the MIC in [1] is 3.03 µM (≈ 5.65 µg/mL); in experiment [2], no less than 48.5 µM; in [3], 17.1 µM (≈ 32 µg/mL).
Consider `CC[C@H](C)[C@H](NC(=O)[C@H](CS)NC(=O)[C@H](CC(C)C)NC(=O)[C@@H](N)CC(C)C)C(=O)N[C@@H](C)C(=O)N[C@@H](CC(C)C)C(=O)N[C@@H](CCCN=C(N)N)C(=O)N[C@@H](CCCCN)C(=O)N[C@@H](CCCCN)C(N)=O` [LLCIALRKK], for which the MIC was 3.78 µM (≈ 4 µg/mL) in experiment [19]; 3.78 µM (≈ 4 µg/mL) in [20]; 0.946 µM (≈ 0.999 µg/mL) in [21]; 7.57 µM (≈ 7.99 µg/mL) in experiment [22]; 0.946 µM (≈ 0.999 µg/mL) in [23]; 7.57 µM (≈ 7.99 µg/mL) in [24]. Further, the minimum inhibitory concentration (MIC) was found to be 1.89 µM (≈ 2 µg/mL) in experiment [25]; 7.57 µM (≈ 7.99 µg/mL) in [26]; 7.57 µM (≈ 7.99 µg/mL) in [27]; 3.78 µM (≈ 4 µg/mL) in experiment [28]; 3.78 µM (≈ 4 µg/mL) in experiment [29].
In the case of `CC[C@H](C)[C@H](NC(=O)[C@H](CCCCN)NC(=O)[C@H](CCCN=C(N)N)NC(=O)[C@H](CC(C)C)NC(=O)[C@H](C)NC(=O)[C@H](CCCCN)NC(=O)[C@H](CS)NC(=O)[C@H](CC(C)C)NC(=O)[C@@H](N)CC(C)C)C(N)=O` [LLCKALRKI], the minimal inhibitory concentration (MIC) in experiment [19] came out at 3.78 µM (≈ 4 µg/mL); in experiment [20], 7.57 µM (≈ 7.99 µg/mL); in [21] it was 7.57 µM (≈ 7.99 µg/mL); in experiment [22] it was 7.57 µM (≈ 7.99 µg/mL); in experiment [23], 30.3 µM (≈ 32 µg/mL); in experiment [24] it was 3.78 µM (≈ 4 µg/mL). Further, the MIC turned out to be 1.89 µM (≈ 2 µg/mL) in [25]; 7.57 µM (≈ 7.99 µg/mL) in experiment [26]; 7.57 µM (≈ 7.99 µg/mL) in experiment [27]; 7.57 µM (≈ 7.99 µg/mL) in experiment [28]; 7.57 µM (≈ 7.99 µg/mL) in experiment [29].
On to `CC(C)[C@H](N)C(=O)N[C@@H](CCCCN)C(=O)N[C@@H](CCCN=C(N)N)C(=O)N[C@@H](Cc1c[nH]c2ccccc12)C(=O)N[C@@H](CCCCN)C(=O)N[C@@H](CCCCN)C(=O)N[C@@H](Cc1c[nH]c2ccccc12)C(=O)N[C@@H](Cc1ccccc1)C(=O)N[C@@H](CCCN=C(N)N)C(=O)N[C@@H](CCCCN)C(=O)N[C@@H](Cc1c[nH]c2ccccc12)C(=O)N[C@@H](CCCCN)C(=O)N[C@@H](CCCCN)C(=O)N[C@@H](Cc1c[nH]c2ccccc12)C(=O)N[C@H](C(N)=O)C(C)C` [VKRWKKWFRKWKKWV], for which the MIC in [30] came to 2.1 µM (≈ 4.6 µg/mL); in experiment [31] it was 4.3 µM (≈ 9.41 µg/mL); in [32] it was 4.3 µM (≈ 9.41 µg/mL); in [33], 8.5 µM (≈ 18.6 µg/mL).
